# Laboratory results: ChEMBL document CHEMBL3870304 (Eur J Med Chem, 2016)
# Test: cells
# Details: Homo sapiens, NCI-H460, 72 h
# Description: Cytotoxicity against human NCI-H460 cells assessed as reduction in cell proliferation after 72 hrs by MTT assay
row,Structure (SMILES),IC50 [nM]
1,C/C(=N\Nc1ncc(Cl)c(Nc2ccccc2S(=O)(=O)C(C)C)n1)c1ccccc1F,7150
2,Cc1cc(Nc2ncc(Cl)c(Nc3ccccc3S(=O)(=O)C(C)C)n2)c(OC(C)C)cc1C1CCNCC1 [CERITINIB],> 10000
3,CSc1ccc(/C=N/Nc2ncc(Cl)c(Nc3ccccc3S(=O)(=O)C(C)C)n2)cc1,320
4,CC(C)S(=O)(=O)c1ccccc1Nc1nc(N/N=C/c2ccccc2F)ncc1Cl,1230
5,C/C(=N\Nc1ncc(Cl)c(Nc2ccccc2S(=O)(=O)C(C)C)n1)c1ccc(Br)cc1,> 10000
6,CC(C)S(=O)(=O)c1ccccc1Nc1nc(N/N=C/c2cccs2)ncc1Cl,570
7,CC(C)S(=O)(=O)c1ccccc1Nc1nc(N/N=C/c2ccco2)ncc1Cl,1030
8,COc1cc(/C=N/Nc2ncc(Cl)c(Nc3ccccc3S(=O)(=O)C(C)C)n2)cc(OC)c1OC,1230

# Test: cells
# Details: Homo sapiens, HCC78, 72 h
# Description: Cytotoxicity against human HCC78 cells harboring SLC34A2-ROS1 assessed as reduction in cell proliferation after 72 hrs by MTT assay
row,Structure (SMILES),IC50 [nM]
1,C/C(=N\Nc1ncc(Cl)c(Nc2ccccc2S(=O)(=O)C(C)C)n1)c1ccccc1F,600
2,Cc1cc(Nc2ncc(Cl)c(Nc3ccccc3S(=O)(=O)C(C)C)n2)c(OC(C)C)cc1C1CCNCC1 [CERITINIB],18
3,CSc1ccc(/C=N/Nc2ncc(Cl)c(Nc3ccccc3S(=O)(=O)C(C)C)n2)cc1,210
4,CC(C)S(=O)(=O)c1ccccc1Nc1nc(N/N=C/c2ccccc2F)ncc1Cl,360
5,C/C(=N\Nc1ncc(Cl)c(Nc2ccccc2S(=O)(=O)C(C)C)n1)c1ccc(Br)cc1,2380
6,CC(C)S(=O)(=O)c1ccccc1Nc1nc(N/N=C/c2cccs2)ncc1Cl,880
7,CC(C)S(=O)(=O)c1ccccc1Nc1nc(N/N=C/c2ccco2)ncc1Cl,2520
8,COc1cc(/C=N/Nc2ncc(Cl)c(Nc3ccccc3S(=O)(=O)C(C)C)n2)cc(OC)c1OC,19

# Test: cells
# Details: Homo sapiens, HT-29, 72 h
# Description: Cytotoxicity against human HT-29 cells assessed as reduction in cell proliferation after 72 hrs by MTT assay
row,Structure (SMILES),IC50 [nM]
1,C/C(=N\Nc1ncc(Cl)c(Nc2ccccc2S(=O)(=O)C(C)C)n1)c1ccccc1F,> 10000
2,Cc1cc(Nc2ncc(Cl)c(Nc3ccccc3S(=O)(=O)C(C)C)n2)c(OC(C)C)cc1C1CCNCC1 [CERITINIB],> 10000
3,CSc1ccc(/C=N/Nc2ncc(Cl)c(Nc3ccccc3S(=O)(=O)C(C)C)n2)cc1,980
4,CC(C)S(=O)(=O)c1ccccc1Nc1nc(N/N=C/c2ccccc2F)ncc1Cl,1420
5,C/C(=N\Nc1ncc(Cl)c(Nc2ccccc2S(=O)(=O)C(C)C)n1)c1ccc(Br)cc1,> 10000
6,CC(C)S(=O)(=O)c1ccccc1Nc1nc(N/N=C/c2cccs2)ncc1Cl,880
7,CC(C)S(=O)(=O)c1ccccc1Nc1nc(N/N=C/c2ccco2)ncc1Cl,3100
8,COc1cc(/C=N/Nc2ncc(Cl)c(Nc3ccccc3S(=O)(=O)C(C)C)n2)cc(OC)c1OC,2150

# Test: cells
# Details: Homo sapiens, KARPAS-299, 72 h
# Description: Cytotoxicity against human KARPAS299 cells harboring NPM-ALK assessed as reduction in cell proliferation after 72 hrs by MTT assay
row,Structure (SMILES),IC50 [nM]
1,C/C(=N\Nc1ncc(Cl)c(Nc2ccccc2S(=O)(=O)C(C)C)n1)c1ccccc1F,540
2,Cc1cc(Nc2ncc(Cl)c(Nc3ccccc3S(=O)(=O)C(C)C)n2)c(OC(C)C)cc1C1CCNCC1 [CERITINIB],27
3,CSc1ccc(/C=N/Nc2ncc(Cl)c(Nc3ccccc3S(=O)(=O)C(C)C)n2)cc1,280
4,CC(C)S(=O)(=O)c1ccccc1Nc1nc(N/N=C/c2ccccc2F)ncc1Cl,450
5,C/C(=N\Nc1ncc(Cl)c(Nc2ccccc2S(=O)(=O)C(C)C)n1)c1ccc(Br)cc1,2500
6,CC(C)S(=O)(=O)c1ccccc1Nc1nc(N/N=C/c2cccs2)ncc1Cl,910
7,CC(C)S(=O)(=O)c1ccccc1Nc1nc(N/N=C/c2ccco2)ncc1Cl,750
8,COc1cc(/C=N/Nc2ncc(Cl)c(Nc3ccccc3S(=O)(=O)C(C)C)n2)cc(OC)c1OC,20

# Test: cells
# Details: Homo sapiens, A549, 72 h
# Description: Cytotoxicity against human A549 cells assessed as reduction in cell proliferation after 72 hrs by MTT assay
row,Structure (SMILES),IC50 [nM]
1,C/C(=N\Nc1ncc(Cl)c(Nc2ccccc2S(=O)(=O)C(C)C)n1)c1ccccc1F,> 10000
2,Cc1cc(Nc2ncc(Cl)c(Nc3ccccc3S(=O)(=O)C(C)C)n2)c(OC(C)C)cc1C1CCNCC1 [CERITINIB],> 10000
3,CSc1ccc(/C=N/Nc2ncc(Cl)c(Nc3ccccc3S(=O)(=O)C(C)C)n2)cc1,880
4,CC(C)S(=O)(=O)c1ccccc1Nc1nc(N/N=C/c2ccccc2F)ncc1Cl,> 10000
5,C/C(=N\Nc1ncc(Cl)c(Nc2ccccc2S(=O)(=O)C(C)C)n1)c1ccc(Br)cc1,4840
6,CC(C)S(=O)(=O)c1ccccc1Nc1nc(N/N=C/c2cccs2)ncc1Cl,470
7,CC(C)S(=O)(=O)c1ccccc1Nc1nc(N/N=C/c2ccco2)ncc1Cl,1940
8,COc1cc(/C=N/Nc2ncc(Cl)c(Nc3ccccc3S(=O)(=O)C(C)C)n2)cc(OC)c1OC,1150
